In patent US20090023721A1, “Novel Substituted Tetracyclic Tetrahydrofuran, Pyrrolidine and Tetrahydrothiophene Derivatives and Their Use as a Medicament” (priority 2005, published 2009):
Where two headings read alike, the source gives them in different places.

Tests used:
[1] = target: T1, human cloned 5-HT2A receptor, expressed in L929 cells (Homo sapiens, UniProt P28223); assay: In vitro radioligand binding affinity for 5-HT2A receptor ([125I]R91150)
T1 construct: expressed in transfected cells; host or cells: L929 cells
Description: The interaction of the compounds of Formula (I) with 5-HT2A and 5-HT2C receptors was assessed in in vitro radioligand binding experiments. In general, a low concentration of a radioligand with a high binding affinity for the receptor is incubated with a sample of a tissue preparation enriched in a particular receptor (1 to 5 mg tissue) in a buffered medium (0.2 to 5 ml). During the incubation, the radioligands bind to the receptor. When equilibrium of binding is reached, the receptor bound radioactivity is separated from the non-bound radioactivity, and the receptor bound activity is counted. The interaction of the test compounds with the receptors is assessed in competition binding experiments. Various concentrations of the test compound are added to the incubation mixture containing the tissue preparation and the radioligand. Binding of the radioligand will be inhibited by the test compound in proportion to its binding affinity and its concentration. The affinities of the compounds for the 5-HT2 receptors were measured by means of radioligand binding studies conducted with: (a) human cloned 5-HT2A receptor, expressed in L929 cells using [^125I]R91150 as radioligand and (b) human cloned 5-HT2C receptor, expressed in CHO cells using [^3H]mesulergine as radioligand.

[2] = target: T2, human cloned 5-HT2C receptor, expressed in CHO cells (Homo sapiens, UniProt P28335); assay: In vitro radioligand binding affinity for 5-HT2C receptor ([3H]mesulergine)
T2 construct: expressed in transfected cells; host or cells: CHO cells
T2 sequence (P28335 33-458): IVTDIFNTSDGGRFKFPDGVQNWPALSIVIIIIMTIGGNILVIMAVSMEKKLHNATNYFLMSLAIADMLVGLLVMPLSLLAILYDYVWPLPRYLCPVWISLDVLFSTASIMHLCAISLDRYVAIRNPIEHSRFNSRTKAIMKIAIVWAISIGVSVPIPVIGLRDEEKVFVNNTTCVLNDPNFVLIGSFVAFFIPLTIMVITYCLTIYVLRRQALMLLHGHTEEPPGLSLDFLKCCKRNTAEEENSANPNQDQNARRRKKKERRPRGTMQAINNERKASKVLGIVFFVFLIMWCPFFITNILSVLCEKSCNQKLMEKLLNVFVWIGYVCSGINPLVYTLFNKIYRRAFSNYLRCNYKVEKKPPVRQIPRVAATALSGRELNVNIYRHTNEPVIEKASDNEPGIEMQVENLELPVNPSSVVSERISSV
Description: The interaction of the compounds of Formula (I) with 5-HT2A and 5-HT2C receptors was assessed in in vitro radioligand binding experiments. […] During the incubation, the radioligands bind to the receptor. When equilibrium of binding is reached, the receptor bound radioactivity is separated from the non-bound radioactivity, and the receptor bound activity is counted. The interaction of the test compounds with the receptors is assessed in competition binding experiments. Various concentrations of the test compound are added to the incubation mixture containing the tissue preparation and the radioligand. Binding of the radioligand will be inhibited by the test compound in proportion to its binding affinity and its concentration.

[3] = target: T3, human Dopamine D2L receptor (Homo sapiens, UniProt P14416); assay: In vitro binding affinity for human D2L receptor ([3H]Spiperone)
T3 construct: expressed in transfected cells; host or cells: CHO cells (frozen membranes)
Description: Frozen membranes of human Dopamine D2L receptor-transfected CHO cells were thawed, briefly homogenised using an Ultra-Turrax T25 homogeniser and diluted in Tris-HCl assay buffer containing NaCl, CaCl2, MgCl2, KCl (50, 120, 2, 1, and 5 mM respectively, adjusted to pH 7.7 with HCl) to an appropriate protein concentration optimised for specific and non-specific binding. Radioligand [^3H]Spiperone (NEN, specific activity ˜70 Ci/mmol) was diluted in assay buffer at a concentration of 2 nmol/L. Prepared radioligand (50 μl), along with 50 μl of either the 10% DMSO control, Butaclamol (10-6 mol/l final concentration), or compound of interest, was then incubated (30 min, 37° C.) with 400 μl of the prepared membrane solution. Membrane-bound activity was filtered through a Packard Filtermate harvester onto GF/B Unifilterplates and washed with ice-cold Tris-HCl buffer (50 mM; pH 7.7; 6×0.5 ml). Filters were allowed to dry before adding scintillation fluid and counting in a Topcount scintillation counter. Percentage specific bound and competition binding curves were calculated using S-Plus software (Insightful).

NET = target: T4, NET (Rattus norvegicus, UniProt Q9WTR4); assay: In vitro determination of NET reuptake inhibition ([3H]Nixosetine binding, rat brain cortex membranes)
T4 construct: Cortex from rat brain was collected and homogenised; from tissue; host or cells: rat brain cortex membranes
Description: Cortex from rat brain was collected and homogenised using an Ultra-Turrax T25 and a Dual homogeniser in ice-cold homogenising buffer containing Tris, NaCl and KCl (50 mM, 120 mM and 5 mM, respectively, pH 7.4) prior to dilution to an appropriate protein concentration optimised for specific and non-specific binding. […] Membrane-bound activity was detected by filtration through a Packard Filtermate harvester onto GF/B Unifilterplates, washed with ice-cold Tris-HCl buffer, containing NaCl and KCl (50 mM, 120 mM and 4 mM; pH 7.4; 6×0.5 ml). Filters were allowed to dry for 24 h before adding scintillation fluid. Scintillation fluid was allowed to saturate filters for 24 h before counting in a Topcount scintillation counter. Percentage specific bound and competition binding curves were calculated using S-Plus software (Insightful).

[4] = human cloned 5-HT2A receptor in L929 cells, [125I]R91150, read-out: h-5HT2A (converted)
[5] = human cloned 5-HT2C receptor in CHO cells, [3H]mesulergine, read-out: h-5HT2C (converted)
[6] = human D2L receptor-transfected CHO cell membranes, [3H]Spiperone, read-out: h-D2L (converted)

T1 sequence (P28223 whole entry): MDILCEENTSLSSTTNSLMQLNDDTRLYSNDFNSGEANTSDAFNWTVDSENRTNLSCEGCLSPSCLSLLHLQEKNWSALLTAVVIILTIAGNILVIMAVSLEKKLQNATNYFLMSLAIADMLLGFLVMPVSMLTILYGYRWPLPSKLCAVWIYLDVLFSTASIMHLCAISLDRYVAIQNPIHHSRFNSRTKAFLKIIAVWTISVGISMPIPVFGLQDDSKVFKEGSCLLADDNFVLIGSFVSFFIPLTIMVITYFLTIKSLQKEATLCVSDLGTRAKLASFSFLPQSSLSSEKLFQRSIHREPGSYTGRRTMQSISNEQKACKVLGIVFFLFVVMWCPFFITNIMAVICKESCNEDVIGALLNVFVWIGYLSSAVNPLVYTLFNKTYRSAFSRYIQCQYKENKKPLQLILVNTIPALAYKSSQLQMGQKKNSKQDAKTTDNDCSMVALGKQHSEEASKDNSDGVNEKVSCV
T4 sequence (Q9WTR4 1-597): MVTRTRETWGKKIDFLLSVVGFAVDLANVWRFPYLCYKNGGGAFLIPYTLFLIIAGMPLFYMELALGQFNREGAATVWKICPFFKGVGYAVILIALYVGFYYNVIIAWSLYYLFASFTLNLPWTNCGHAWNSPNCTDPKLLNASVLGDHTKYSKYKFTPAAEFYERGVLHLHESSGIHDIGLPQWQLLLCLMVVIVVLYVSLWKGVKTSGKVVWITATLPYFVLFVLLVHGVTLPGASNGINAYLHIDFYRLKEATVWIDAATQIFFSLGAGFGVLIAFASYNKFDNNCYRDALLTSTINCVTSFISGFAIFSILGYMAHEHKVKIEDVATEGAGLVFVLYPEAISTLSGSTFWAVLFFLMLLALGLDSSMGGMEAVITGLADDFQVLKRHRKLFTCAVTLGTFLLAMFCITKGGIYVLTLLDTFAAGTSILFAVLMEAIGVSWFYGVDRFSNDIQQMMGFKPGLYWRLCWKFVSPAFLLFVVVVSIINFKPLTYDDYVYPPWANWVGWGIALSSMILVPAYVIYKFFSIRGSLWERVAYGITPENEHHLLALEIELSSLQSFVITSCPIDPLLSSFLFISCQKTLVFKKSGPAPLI
T3 sequence (P14416 whole entry): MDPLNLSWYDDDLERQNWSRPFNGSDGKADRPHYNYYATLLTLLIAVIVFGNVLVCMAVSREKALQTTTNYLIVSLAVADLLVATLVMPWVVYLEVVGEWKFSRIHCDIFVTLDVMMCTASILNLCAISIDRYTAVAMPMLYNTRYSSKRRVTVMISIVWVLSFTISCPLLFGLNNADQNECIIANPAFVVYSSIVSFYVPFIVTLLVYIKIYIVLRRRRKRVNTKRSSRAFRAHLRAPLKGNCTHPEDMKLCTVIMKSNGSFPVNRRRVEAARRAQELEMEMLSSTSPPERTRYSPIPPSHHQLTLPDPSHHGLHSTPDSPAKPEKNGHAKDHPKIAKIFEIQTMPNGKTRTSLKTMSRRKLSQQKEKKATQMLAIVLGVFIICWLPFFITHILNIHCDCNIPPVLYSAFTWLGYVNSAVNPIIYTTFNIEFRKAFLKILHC

| Structure (SMILES) | IC50 [1, 4] | IC50 [2, 5] | IC50 [3, 6] | IC50 (NET) | IC50 [1] | IC50 [2] | IC50 [3] | NET Reuptake Inhibition (NET) |
| --- | --- | --- | --- | --- | --- | --- | --- | --- |
| CN(C)C[C@H]1C[C@@H]2c3ccccc3Oc3ccc(F)cc3[C@H]2N1 [compound 17, [(2R,3aR,12bS)-11-fluoro-2,3,3a,12b-tetrahydro-lH-dibenzo[2,3 :6,7]oxepino[4,5-b]pyrrol-2-yl]-N,N-dimethylmethanamine] | 575 nM | 501 nM | 2340 nM | 7.41 nM |  |  |  |  |
| O=C1NC[C@@H]2C[C@@H]3c4ccccc4Cc4ccc(F)cc4[C@H]3N12 [compound 15, (4aS,13bR,14aS)-6-fluoro-1,4a,9,13b,14,14a-hexahydrodibenzo[3′,4′:6′,7′]cyclohepta-[1′,2′:4,5]pyrrolo[1,2-c]imidazol-3(2H)-one] | 8320 nM | 2340 nM | > 10000 nM | 2400 nM |  |  |  |  |
| CN1CCN2[C@H](C[C@@H]3c4ccccc4Cc4ccc(F)cc4[C@H]32)C1 [14a, (5aS,14bR,15a,R)-7-fluoro-2-methyl-1,3,4,5a,10,14b,15,1 5a-octahydro-2H-dibenzo-[3′,4′:6′,7′]cyclohepta[1′,2′:4,5]pyrrolo[1,2-a]pyrazine] |  |  |  |  | 1.26 nM | 0.891 nM | 1.55 nM | 5.50 |
| CN1CC(=O)N2[C@@H](C[C@@H]3c4ccccc4Cc4ccc(F)cc4[C@H]32)C1 [compound 4, (5aS,14bR,15aS)-7-fluoro-2-methyl-1,2,3,5a,10,14b,15,15a-octahydro-4H-dibenzo [3′,4′:6′,7′]cyclohepta[1′,2′:4,5]pyrrolo[1,2-a]pyrazin-4-one] | > 1000 nM | > 1000 nM | > 1000 nM |  |  |  |  | <5 |
| COCCN1[C@@H](CN(C)C)C[C@@H]2c3ccccc3Cc3ccc(F)cc3[C@H]21 [compound 40, [(2R,3aR,12bS)-11-Fluoro-1-(2-methoxyethyl)-1,2,3,3a,8,12b-hexahydrodibenzo-[3,4:6,7]-cyclohepta[1,2-b]pyrrol-2-yl]-N,N-dimethylmethanamine] | 372 nM | 263 nM | > 1000 nM | 479 nM |  |  |  |  |
| CSC1=NC[C@H]2C[C@@H]3c4ccccc4Cc4ccc(F)cc4[C@H]3N12 [compound 9, (4aS,13bR,14aR)-6-fluoro-3-(methylsulfanyl)-1,4a,9,13b,14,14a-hexahydrodibenzo-[3′,4′:6′,7′]cyclohepta[1′,2′:4,5]pyrrolo[1,2-c]imidazole] | > 1000 nM | > 1000 nM | > 1000 nM | 3980 nM |  |  |  |  |
| CN(C)C[C@H]1C[C@@H]2c3ccccc3Cc3ccc(F)cc3[C@H]2S1 [compound 23, [(2R,3aR,12bS)-11-fluoro-3,3a,8,12b-tetrahydro-2H-dibenzo[3,4:6,7]cyclohepta[1,2-b]thien-2-yl]-N,N-dimethylmethanamine] | 661 nM | 229 nM | 5010 nM | 28.2 nM |  |  |  |  |
| CN1C[C@@H]2C[C@@H]3c4ccccc4Cc4ccc(F)cc4[C@H]3N2C1=O [compound 16, (4aS,13bR,14aS)-6-fluoro-2-methyl-1,4a,9,13b,14,14a-hexahydrodibenzo[3′,4′:6′,7′]-cyclohepta[1′,2′:4,5]pyrrolo[1,2-c]imidazol-3(2H)-one] | > 10000 nM | > 10000 nM | > 10000 nM | > 10000 nM |  |  |  |  |
| CN(C)C[C@H]1C[C@@H]2c3ccccc3Cc3ccc(F)cc3[C@H]2N1 [37a, [(2R,3aR,12bS)-11-fluoro-1,2,3,3a,8,12b-hexahydrodibenzo[3,4:6,7]cyclohepta[1,2-b]-pyrrol-2-yl]-N,N-dimethylmethanamine] | 44.7 nM | 50.1 nM | 355 nM | 7.94 nM |  |  |  |  |
| CC(=O)N1[C@@H](CN(C)C)C[C@@H]2c3ccccc3Cc3ccc(F)cc3[C@H]21 [36b, [(2R,3aR, 1 2bS)-1-acetyl-11-fluoro-1,2,3,3a,8,12b-hexahydrodibenzo[3,4:6,7]cyclohepta[1,2-b]pyrrol-2-yl]-N,N-dimethylmethanamine] | > 1000 nM | > 1000 nM | > 1000 nM | 3890 nM |  |  |  |  |
